Peptide text beside a SMILES is read from it.
What was measured:
[1] = FITC-PI(4,5)P2 binding at pH5.2 with metals and cold PPI (x9D)
Procedure: To a streptavidin-coated 96-well plate, 400 ng peptide IM3 or IM5 were bound per well. Each well received 100 uL of sodium acetate buffer pH5.2 containing 500 uM EDTA, Calcium Chloride, Zinc Chloride or Ferric Chloride. Each well additionally contained 50 ng FITC-PI(4,5)P2 plus 2 ug of either cold PI(3,4)P2, PI(4,5)P2, PI(3,5)P2 or buffer. All assays were done in sextuplicate. After incubation at room temperature for 60 mins, wells were washed and counted in a fluorometer set at FITC excitation/emmission wavelengths.

[2] = Iron-binding competition assay with labeled IM3 (x2E c); settings: 375 ng/well labeled IM3 plus 10x unlabeled peptide; no competing peptide = 100
Procedure: Experiments were conducted by the procedure described above. Ferric iron-charged NTA-coated 96-well plates were used as described. 1 ug/well immodulator peptide complexed to Alexa-488-labeled streptavidin in PBS buffer was added (60 min at room temperature). The plate was washed and counted in a standard fluorometer (excitation/emission: 485/525 nm). The results (fluorescence) show improved iron-binding by the three peptides extended C-terminally by the AVD, (dA)VD, and FVS tripeptides. **p<0.01 vs IM3 control IM3: 200±29; IM4: 45±37**; IM5: 130±77; IM3AVD: 434±29**; IM3dAVD: 418±28**; IM3FVS: 371±33** • (c) Competition assay. The same procedure was used as the preceding experiment, except that 375 ng/well labeled IM3 peptide was used, plus 10× of the indicated unlabeled peptide. ‘No competing peptide’ control value was set to 100. *p<0.05 vs “no peptide” control Competing Peptide/Fluorescence • None: 100±38; IM4: 125±26; IM3: 63±27*; IM5: 40±14*; IM3AVD: 10±28* • (d) Competition assay. The same procedure was used as the preceding experiment, except that labeled IM3AVD peptide was used. **p<0.01 vs “no competing peptide” control • None: 100±9; IM4: 144±44; IM3: 35±16**; IM5: 30±19**; IM3AVD: 9±19** • (e) The same procedure was used as the preceding experiment, except that each peptide was labeled with Alexa-488-labeled streptavidin in PBS buffer and used separately. Binding to IM3 was set to =100. *p<0.05, **p<0.01 vs IM3 control. (Labeled Peptide/Fluorescence) IM1: 1.8±0.4**; IM2: 3.0±1.8**; IM3: 100.0±16.8; IM4: 7.2±1.7*; IM5: 86.7±6.4; IM6: 85.9±14.9; IM3AVD:137.7±11.8*; IM3dAVD:147.4±22.9*; IM3FVS: 101.5±10.5.

[3] = FITC-PI(4,5)P2 binding to plate-bound peptide with calcium (x9A)
Procedure: Immodulator peptides IM1, IM3 and IM5 (400 ng/well) in PBS were bound to streptavidin-coated 96-well plates at room temperature for 60 minutes, in the presence or absence of 500 uM calcium chloride. Each well also received 200 ng cold PPI plus 10 ng FITC-labeled PI(4,5)P2 or PI(4)P1. The tables below show the relative fluorescence (with/without calcium background) expressed as a percentage of the highest binder, FITC-PI(4,5)P2+cold PI(3,5)P2, which was 2,496 fluorescence units. Background binding without calcium was, in all cases, 200-300 fluorescence units.

[4] = target: T1, DNA-binding domain (DBD) of RXR-alpha (Homo sapiens, UniProt P19793); assay: Binding to RXRa-DBD with or without ferric iron (x3B)
T1 construct: purchased Abcam, Cambridge, MA
T1 sequence (P19793 111-228): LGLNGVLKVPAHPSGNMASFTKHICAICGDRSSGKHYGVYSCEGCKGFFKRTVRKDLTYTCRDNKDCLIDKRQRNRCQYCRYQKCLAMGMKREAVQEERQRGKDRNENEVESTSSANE
Procedure: Experiment x3B. Binding of immodulator peptides to DNA-binding domain (DBD) of RXR-alpha, with or without ferric iron. 100 ng/well recombinant RXRa-DBD (Abcam, Cambridge, MA) was adsorbed to wells of a 96-well plate for 60 minutes at RT, then blocked with 200 uL 1% BSA in PBS buffer overnight. Plate was washed and 800 ng/well Streptavidin-Alexa 488 conjugate (SA488)-labelled IM peptide was added, with or without ferric chloride (5 uM) or 5-fold excess RXRa-DBD. The plate was incubated for 2 hours at room temperature, washed and counted in a standard fluorometer (excitation/emission 485/525 nm).

full-length huNur77 = target: T2, full-length huNur77 (Homo sapiens, UniProt P22736); assay: Binding to full-length huNur77 (x3C); settings: 333 ng/well labelled peptide
T2 construct: purchased Abcam, Cambridge, MA
T2 sequence (P22736 whole entry): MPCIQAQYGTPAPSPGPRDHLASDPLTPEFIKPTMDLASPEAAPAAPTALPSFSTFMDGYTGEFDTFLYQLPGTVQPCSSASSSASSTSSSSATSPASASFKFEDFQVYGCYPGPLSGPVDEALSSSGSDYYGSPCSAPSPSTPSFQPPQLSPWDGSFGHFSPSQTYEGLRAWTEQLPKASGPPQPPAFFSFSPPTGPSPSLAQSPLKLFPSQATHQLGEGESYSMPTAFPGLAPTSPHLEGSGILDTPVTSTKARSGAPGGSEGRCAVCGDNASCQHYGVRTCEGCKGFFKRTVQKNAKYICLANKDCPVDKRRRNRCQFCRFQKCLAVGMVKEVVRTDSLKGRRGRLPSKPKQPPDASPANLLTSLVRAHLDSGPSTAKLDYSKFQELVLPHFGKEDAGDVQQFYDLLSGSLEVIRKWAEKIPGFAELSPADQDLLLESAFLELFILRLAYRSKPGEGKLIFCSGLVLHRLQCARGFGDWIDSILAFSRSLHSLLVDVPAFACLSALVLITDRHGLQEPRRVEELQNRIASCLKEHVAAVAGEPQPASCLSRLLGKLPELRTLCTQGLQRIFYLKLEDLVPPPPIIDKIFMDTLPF
Procedure: 400 ng/well recombinant Nur77 (Abcam, Cambridge, MA) was adsorbed to wells of a 96-well plate for 90 minutes at RT, then blocked with 200 uL 1% BSA in PBS buffer overnight. Plate was washed and 333 ng/well Streptavidin-Alexa 488 conjugate (SA488)-labelled IM3, IM4 or no peptide was added. The plate was incubated for 60 min at room temperature, washed and counted in a standard fluorometer (excitation/emission 485/525 nm). Background (buffer alone) was subtracted.

[5] = cold PPI: None, 500 uM calcium chloride
[6] = 100 ng/well RXRa-DBD, no FeCl3, no excess RXRa-DBD

| Compound | fluorescence, FITC-PI(4,5)P2 bound ([1]; Buffer, Calcium) | fluorescence, FITC-PI(4,5)P2 bound ([1]; Buffer, EDTA) | fluorescence, FITC-PI(4,5)P2 bound ([1]; Buffer, Ferric Iron) | fluorescence, FITC-PI(4,5)P2 bound ([1]; Buffer, Zinc) | fluorescence, FITC-PI(4,5)P2 bound ([1]; Cold PI(3,4)P2, Calcium) | fluorescence, FITC-PI(4,5)P2 bound ([1]; Cold PI(3,4)P2, EDTA) | fluorescence, FITC-PI(4,5)P2 bound ([1]; Cold PI(3,4)P2, Ferric Iron) | fluorescence, FITC-PI(4,5)P2 bound ([1]; Cold PI(3,4)P2, Zinc) | fluorescence, FITC-PI(4,5)P2 bound ([1]; Cold PI(3,5)P2, Calcium) | fluorescence, FITC-PI(4,5)P2 bound ([1]; Cold PI(3,5)P2, EDTA) | fluorescence, FITC-PI(4,5)P2 bound ([1]; Cold PI(3,5)P2, Ferric Iron) | fluorescence, FITC-PI(4,5)P2 bound ([1]; Cold PI(3,5)P2, Zinc) | fluorescence, FITC-PI(4,5)P2 bound ([1]; Cold PI(4,5)P2, Calcium) | fluorescence, FITC-PI(4,5)P2 bound ([1]; Cold PI(4,5)P2, EDTA) | fluorescence, FITC-PI(4,5)P2 bound ([1]; Cold PI(4,5)P2, Ferric Iron) | fluorescence, FITC-PI(4,5)P2 bound ([1]; Cold PI(4,5)P2, Zinc) | fluorescence of labeled IM3 with competing peptide [2] | relative fluorescence, FITC-PI(4,5)P2 bound ([3]; cold PPI: 3,4,5-P3, calcium) | relative fluorescence, FITC-PI(4,5)P2 bound ([3]; cold PPI: 3,4-P2, calcium) | relative fluorescence, FITC-PI(4,5)P2 bound ([3]; cold PPI: 3,5-P2, calcium) | also measured |
| --- | --- | --- | --- | --- | --- | --- | --- | --- | --- | --- | --- | --- | --- | --- | --- | --- | --- | --- | --- | --- | --- |
| CC[C@H](C)[C@H](NC(=O)CNC(=O)[C@H](CCCNC(=N)N)NC(=O)[C@H](CCCCN)NC(=O)[C@H](CCCNC(=N)N)NC(=O)CNC(=O)[C@H](CCCNC(=N)N)NC(=O)[C@H](CO)NC(=O)[C@@H]1CCCN1C(=O)[C@H](CCCCN)NC(=O)[C@H](CS)NC(=O)[C@H](CCC(N)=O)NC(=O)[C@H](CCCCN)NC(=O)[C@H](CCCNC(=N)N)NC(=O)[C@H](CCCCN)NC(=O)[C@H](Cc1ccc(O)cc1)NC(=O)[C@H](Cc1ccccc1)NC(=O)CNC(=O)[C@H](CCCCN)NC(=O)[C@@H](N)CCCNC(=N)N)C(=O)N[C@@H](CS)C(=O)N[C@@H](Cc1c[nH]c2ccccc12)C(=O)O [IM5] (H-RKGFYKRKQCKPSRGRKRGICW-OH; N-terminus and C-terminus assumed) | 234 ± 34 | 88 ± 23 | 1,111 ± 167 | 236 ± 55 | 205 ± 50 | 150 ± 81 | 2,150 ± 420 | 151 ± 51 | 489 ± 146 | 205 ± 71 | 2,026 ± 176 | 353 ± 29 | 163 ± 80 | 81 ± 95 | 1,447 ± 304 | 104 ± 21 | 40±14 | 0.2 percentage of the highest binder | 12.3 percentage of the highest binder | 16.9 percentage of the highest binder | relative fluorescence, FITC-PI(4,5)P2 bound ([3]; cold PPI: 3-P1, calcium): 0.3 percentage of the highest binder; relative fluorescence, FITC-PI(4,5)P2 bound ([3]; cold PPI: 4,5-P2, calcium): 7.6 percentage of the highest binder; relative fluorescence, FITC-PI(4,5)P2 bound ([3]; cold PPI: 4-P1, calcium): 2.3 percentage of the highest binder; relative fluorescence, FITC-PI(4,5)P2 bound ([3]; cold PPI: 5-P1, calcium): 2.7 percentage of the highest binder; relative fluorescence, FITC-PI(4,5)P2 bound [3, 5]: 2.6 percentage of the highest binder; fluorescence [4, 6]: 228.0 ± 44.9; fluorescence ([4]; FeCl3 5 uM, 5X excess RXRa-DBD): 303.0 ± 68.3; fluorescence ([4]; FeCl3 5 uM, no excess RXRa-DBD): 552.7 ± 86.8^ |
| CC(C)C[C@H](NC(=O)[C@H](C)NC(=O)[C@@H]1CCCN1C(=O)[C@H](Cc1c[nH]cn1)NC(=O)[C@H](CS)NC(=O)[C@H](CCC(N)=O)NC(=O)[C@H](CCCCN)NC(=O)[C@@H]1CCCN1C(=O)[C@H](Cc1c[nH]cn1)NC(=O)[C@H](Cc1ccccc1)NC(=O)[C@H](CC(N)=O)NC(=O)CNC(=O)[C@H](CC(N)=O)NC(=O)[C@@H](N)CCCNC(=N)N)C(=O)N[C@@H](CC(=O)O)C(=O)NCC(=O)N[C@@H](CCC(N)=O)C(=O)N[C@@H](CCCNC(=N)N)C(=O)NCC(=O)N[C@@H](CCCCN)C(=O)N[C@@H](CS)C(=O)N[C@@H](Cc1c[nH]c2ccccc12)C(=O)O [IM4] (H-RNGNFHPKQCHPALDGQRGKCW-OH; N-terminus and C-terminus assumed) | – | – | – | – | – | – | – | – | – | – | – | – | – | – | – | – | 125±26 | – | – | – | fluorescence (full-length huNur77; Nur77 400 ng/well): 70 ± 48; fluorescence (full-length huNur77; no Nur77 adsorbed): 112 ± 24 |
| N=C(N)NCCC[C@H](NC(=O)CNC(=O)[C@H](CCCCN)NC(=O)[C@H](CO)NC(=O)[C@@H]1CCCN1C(=O)[C@H](CCCNC(=N)N)NC(=O)[C@H](CS)NC(=O)[C@H](CCC(N)=O)NC(=O)[C@H](CCCCN)NC(=O)[C@H](CCCCN)NC(=O)[C@H](CCCCN)NC(=O)[C@H](Cc1ccc(O)cc1)NC(=O)[C@H](Cc1ccccc1)NC(=O)CNC(=O)[C@H](CCCCN)NC(=O)[C@@H](N)CCCCN)C(=O)N[C@@H](CCCCN)C(=O)N[C@@H](CCCNC(=N)N)C(=O)NCC(=O)N[C@@H](Cc1ccccc1)C(=O)N[C@@H](CS)C(=O)N[C@@H](Cc1c[nH]c2ccccc12)C(=O)O [IM3] (H-KKGFYKKKQCRPSKGRKRGFCW-OH; N-terminus and C-terminus assumed) | 142 ± 29 | 30 ± 22 | 772 ± 168 | 138 ± 388 | 48 ± 61 | 26 ± 25 | 2,162 ± 269 | 65 ± 16 | 88 ± 22 | 63 ± 26 | 2,036 ± 303 | 118 ± 43 | 32 ± 23 | 10 ± 16 | 1,464 ± 320 | 21 ± 22 | 63±27 | 3.2 percentage of the highest binder | 51.5 percentage of the highest binder | 100.0 percentage of the highest binder | fluorescence of the highest binder ([3]; FITC-PI(4,5)P2 + cold PI(3,5)P2, calcium): 2,496 fluorescence units; relative fluorescence, FITC-PI(4,5)P2 bound ([3]; cold PPI: 3-P1, calcium): 1.7 percentage of the highest binder; relative fluorescence, FITC-PI(4,5)P2 bound ([3]; cold PPI: 4,5-P2, calcium): 63.7 percentage of the highest binder; relative fluorescence, FITC-PI(4,5)P2 bound ([3]; cold PPI: 4-P1, calcium): 6.3 percentage of the highest binder; relative fluorescence, FITC-PI(4,5)P2 bound ([3]; cold PPI: 5-P1, calcium): 10.4 percentage of the highest binder; relative fluorescence, FITC-PI(4,5)P2 bound [3, 5]: 2.2 percentage of the highest binder; fluorescence (full-length huNur77; Nur77 400 ng/well): 488 ± 38; fluorescence (full-length huNur77; no Nur77 adsorbed): 59 ± 17; fluorescence [4, 6]: 687.3 ± 55.4; fluorescence ([4]; FeCl3 5 uM, 5X excess RXRa-DBD): 837.0 ± 30.5; fluorescence ([4]; FeCl3 5 uM, no excess RXRa-DBD): 1161.3 ± 78.5 |
